Reference: patent US8853246B2 (Dow AgroSciences LLC, priority 2009, dated 2014)

Experiments:
[1] = tested on: Green Peach Aphid (Myzus Persicae); assay: Insecticidal test for green peach aphid in foliar spray assay (col. MYZUPE); assay type: in vivo; details: Myzus persicae, 72 h, green peach aphid, read-out: MYZUPE 200 ppm (Corrected % Control, rating)
Summary of the method: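 Corrected % control derives from microscope counts of live aphids per plant, treated against diluent-only checks, 3 days after foliar spraying at ~25 °C and 40% RH. Test solution was 200 ppm in 0.025% aqueous Tween 20, applied to both leaf sides of infested cabbage seedlings, four pots each.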

[2] = tested on: Sweetpotato Whitefly-Crawler (Bemisia Tabaci); assay: Insecticidal test for sweetpotato whitefly-crawler in foliar spray assay (col. BEMITA); assay type: in vivo; details: Bemisia tabaci, sweetpotato whitefly-crawler, read-out: BEMITA 200 ppm (Corrected % Control, rating)
Summary of the method: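 Percent control, Abbott-corrected against diluent-sprayed plants, from microscope counts of live nymphs 8-9 days after treatment. Test solution at 200 ppm in 0.025% aqueous Tween 20 applied to both leaf sides of egg-infested cotton after a 5-6 day hatch period (82° F, 50% RH).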

SMILES	pest or weed control at 200 ppm [1]	pest or weed control at 200 ppm [2]	melting point
CN(C(=O)c1cnn(C)c1)c1sc(-c2cncc(F)c2)nc1Cl [Compound 268]	80 to 100%	80 to 100%	151 to 155 °C
CC(CS(C)(=O)=O)C(=O)N(C)c1sc(-c2cncc(F)c2)nc1Cl (stereo not drawn) [Compound 271]	80 to 100%	80 to 100%	151 to 154 °C
CC(C)(C)OC(=O)N(C(=O)OC(C)(C)C)c1cnc(-c2cncc(F)c2)s1 [Compound 277, di(tert-butyl)2-(5-fluoropyridin-3-yl)-1,3-thiazol-5-ylimidodicarbonate]	80 to 100%	80 to 100%	94 to 96 °C
CSCC(C)C(=O)N(C)c1sc(-c2cncc(Br)c2)nc1C (stereo not drawn) [Compound 296]	80 to 100%	80 to 100%	79 to 81 °C
CC(C)(C)OC(=O)Nc1sc(-c2cncc(F)c2)nc1Br [Compound 297]	< 80%	< 80%	164 to 166 °C
CSCCC(=O)Nc1sc(-c2cncc(F)c2)nc1Br [Compound 298]	80 to 100%	< 80%	160 to 163 °C
CC(C[S+](C)[O-])C(=O)Nc1sc(-c2cncc(F)c2)nc1Br (stereo not drawn) [Compound 306]	80 to 100%	< 80%	172 to 175 °C
CC(CS(C)(=O)=O)C(=O)Nc1sc(-c2cncc(F)c2)nc1Br (stereo not drawn) [Compound 307]	80 to 100%	< 80%	185 to 188 °C
CCN(C(=O)CCSC)c1cnc(-c2cncc(F)c2)s1 [Compound 308]	80 to 100%	80 to 100%	78 to 81 °C
Cc1nc(-c2cncc(F)c2)sc1NC(=O)OC(C)(C)C [Compound 309]	< 80%	< 80%	160 to 161 °C
CCN(C(=O)C(C)CSC)c1sc(-c2cccnc2)nc1Cl (stereo not drawn) [Compound 316, N-(4-chloro-2-pyridin-3-yl-thiazol-5-yl)-N-ethyl-2-methyl-3-methylsulfanyl-propionamide]	80 to 100%	< 80%	79 to 81 °C
CC(C)(C)OC(=O)N(C(=O)OC(C)(C)C)c1sc(-c2cncc(F)c2)nc1Br [Compound 317]	80 to 100%	< 80%	154 to 156 °C
CN(C(=O)OC(C)(C)C)c1sc(-c2cncc(F)c2)nc1Br [Compound 318]	80 to 100%	< 80%	108 to 110 °C
COCC(C)OC(=O)Nc1sc(-c2cccnc2)nc1C (stereo not drawn) [Compound 325]	80 to 100%	80 to 100%	106 to 111 °C
CCN(C(=O)C(C)CS(C)(=O)=O)c1sc(-c2cccnc2)nc1Cl (stereo not drawn) [Compound 349]	80 to 100%	80 to 100%	152 to 154 °C
CC(C)(C)OC(=O)N(C(=O)OC(C)(C)C)c1sc(-c2cncc(F)c2)nc1Cl [Compound 352]	80 to 100%	< 80%	125 to 128 °C
Cc1nc(-c2cccnc2)sc1NC(=O)c1cnn(C)c1 [Compound 355]	80 to 100%	< 80%	219 to 222 °C
C=CCN(C(=O)OC(C)(C)C)c1sc(-c2cccnc2)nc1C [Compound 356]	80 to 100%	80 to 100%	72 to 76 °C
CSC(C)C(=O)N(C)c1sc(-c2cccnc2)nc1Cl (stereo not drawn) [Compound 361]	80 to 100%	< 80%	97 to 104 °C
CN(C(=O)OC(C)(C)C)c1sc(-c2cncc(F)c2)nc1F [Compound 366]	80 to 100%	80 to 100%	81 to 84 °C
CSCC(=O)N(C)c1sc(-c2cccnc2)nc1Cl [Compound 369]	80 to 100%	80 to 100%	111 to 114 °C
CCSCC(=O)N(C)c1sc(-c2cccnc2)nc1Cl [Compound 370]	80 to 100%	80 to 100%	68 to 71 °C
CSCC(=O)Nc1sc(-c2cccnc2)nc1C [Compound 372]	80 to 100%	80 to 100%	164 to 167 °C
CCSCC(=O)Nc1sc(-c2cccnc2)nc1C [Compound 373]	80 to 100%	80 to 100%	157 to 158 °C
